Patent US8653304B2, “2,3-dihydro-1H-indene-2-yl urea derivative and pharmaceutical application of same” (Toray Industries, Inc., priority 2009, dated 2014)

Experiments:
Format in all cases: in vivo
[1] = tested on: hyperalgesia in Chung model; assay: Hyperalgesia in neuropathic pain model (Chung model), plantar test; conditions: SD rat, Chung model day 15, oral 100 mg/kg, 90 minutes after administration; FIG. 3
From the text: (§1) The action of Compound (I) on hyperalgesia in pain models was studied. As the pain models, models partially modified from an inflammatory pain model (a carrageenin paw edema pain model) and neuropathic pain models (Bennett model and Chung model) described in documents (Anesth. Analg., 2009, Vol. 108, pp. 1680-1687; Pain, 1988, Vol. 33, pp. 87-107; and Pain, 1992, Vol. 50, pp. 355-363) were used.
The Bennett model was produced by lightly ligating the sciatic nerve in the left thigh of each Crl:CD (SD) rat (male, 6-week old, Charles River Laboratories Japan, Inc.) at 4 points with chromic catgut (4-0). Fourteen days after the Bennett model was produced, each test compound was orally administered, and plantar test was performed 90 minutes after the administration. The plantar test was carried out by measuring the pain threshold (sec) of the left footpad (model foot) using a plantar thermal stimulation device (Plantar test 7370, Ugo Basile) wherein the thermal stimulus intensity was set to 60. Each test compound was suspended in 0.5 w/v % methylcellulose (Wako Pure Chemical Industries, Ltd.) and the obtained solution was orally administered. Compound 46b described in the Examples was administered at a dose of 100 mg/kg, and gabapentin (Toronto Research Chemicals), which is an anticonvulsant, was administered as a comparative control agent at a dose of 100 mg/kg. […]

[2] = tested on: hyperalgesia in Chung model; assay: Hyperalgesia in neuropathic pain model (Chung model), von Frey test; conditions: SD rat, Chung model day 7, oral 100 mg/kg, 90 minutes after administration
From the text: as §1
The Chung model was produced by completely ligating the L5 and L6 spinal nerves of each Crl:CD (SD) rat (male, 6-week old, Charles River Laboratories Japan, Inc.) with a silk suture (5-0). Seven days after the Chung model was produced, each test compound was orally administered, and von Frey test was performed 90 minutes after the administration. In addition, fifteen days after the Chung model was produced, each test compound was orally administered, and plantar test was performed 90 minutes after the administration. The von Frey test was carried out by measuring the pain threshold (g) of the left footpad (model foot) using Dynamic Plantar Aesthesiometer (37400, Ugo Basile) wherein the maximum pressure was set to 30.0 g and the time required to reach the maximum pressure was set to 40 seconds. The plantar test was carried out by the method described above. […]

ICR mouse = assay: Evaluation of hepatotoxicity in mouse (plasma AST); conditions: oral 500 mg/kg, plasma on the day after administration
Description: Compound (I) was suspended in 0.5% methylcellulose (Wako Pure Chemical Industries, Ltd.) to prepare a 50 mg/mL solution to be administered. To each ICR mouse (male, 7-week old, Charles River Laboratories Japan, Inc.), each compound was orally administered at a dose of 500 mg/kg. On the day after the administration, blood was collected from the posterior vena cava, and the obtained blood was centrifuged to collect blood plasma. AST (aspartate aminotransferase) value, which is a marker of hepatic disorders in blood plasma, was measured with a biochemistry automatic analyzer (Hitachi 7070, Hitachi, Ltd.). Comparative Compound 4 was suspended in 0.5% sodium carboxymethylcellulose (Wako Pure Chemical Industries, Ltd.) before use.

[3] = tested on: skin swelling response in type I allergic dermatitis model; assay: Skin swelling response in type I allergic dermatitis model; conditions: BALB/c mouse, 20 μL of 0.5 w/v % solution applied to auricle 1 hour before induction
From the text: The action of Compound (I) on skin swelling response in mouse allergic dermatitis models was studied. As the allergic dermatitis models, models partially modified from a type I allergic dermatitis model and a type IV allergic dermatitis model described in documents (Inflamm. Res., 1998, Vol. 47, pp. 506-511 and Int. Arch. Allergy. Appl. Immunol., 1990, Vol. 92, pp. 356-360) were used.
To each BALB/c mouse (female, 7-week old, Charles River Laboratories Japan, Inc.), mouse IgE anti-DNP antibody (0.05 mg/body, […] CORPORATION) was intravenously administered to passively sensitize the mouse. Twenty four hours after the sensitization, 20 μL of 0.38% DNFB (SIGMA) dissolved in acetone:olive oil (4:1) was applied to the auricle of the mouse to induce inflammation. From after the induction to 24 hours, the thickness of the auricle was measured with time using a Digimatic Indicator (Mitutoyo). Each test compound was dissolved in ethanol, and 20 μL of 0.5 w/v % solution was applied to the auricle at 1 hour before the induction.
The swelling ratio of the auricle was calculated according to the following equation. […] Auricular Swelling Ratio(%)=(A−B)/B×100

[4] = tested on: hyperalgesia in Bennett model; assay: Hyperalgesia in neuropathic pain model (Bennett model), plantar test; conditions: SD rat, Bennett model day 14, oral 100 mg/kg, 90 minutes after administration; FIG. 2
From the text: as §1
The Bennett model was produced by lightly ligating the sciatic nerve in the left thigh of each Crl:CD (SD) rat (male, 6-week old, Charles River Laboratories Japan, Inc.) at 4 points with chromic catgut (4-0). Fourteen days after the Bennett model was produced, each test compound was orally administered, and plantar test was performed 90 minutes after the administration. The plantar test was carried out by measuring the pain threshold (sec) of the left footpad (model foot) using a plantar thermal stimulation device (Plantar test 7370, Ugo Basile) wherein the thermal stimulus intensity was set to 60. Each test compound was suspended in 0.5 w/v % methylcellulose (Wako Pure Chemical Industries, Ltd.) and the obtained solution was orally administered. Compound 46b described in the Examples was administered at a dose of 100 mg/kg, and gabapentin (Toronto Research Chemicals), which is an anticonvulsant, was administered as a comparative control agent at a dose of 100 mg/kg.

COc1c(NC(=O)N[C@@H]2Cc3ccccc3[C@@H]2O)cc(C(C)(C)C)cc1[C@@H](O)C(F)(F)F [Compound 46b, 1-(5-tert-butyl-2-methoxy-3-((R)-2,2,2-trifluoro-1-hydroxyethyl)phenyl)-3-((1S,2R)-1-hydroxy-2,3-dihydro-1H-indene-2-yl)urea]
pain threshold (sec), plantar test, compared to solvent-administered group [1]: significantly elevated | pain threshold, von Frey test [2]: 7.0 ± 0.3 g | AST value (ICR mouse): 47 U/L | suppression ratio on immediate response (auricular swelling AUC 0-4 hours) [3]: 94.4% | suppression ratio on late response (auricular swelling AUC 5-10 hours) [3]: 93.1% | pain threshold (sec), plantar test, compared to solvent-administered group [4]: significantly elevated
